Reference: ChEMBL document CHEMBL4342415, “Inhibition of the Cytolytic Protein Perforin Prevents Rejection of Transplanted Bone Marrow Stem Cells in Vivo” (J Med Chem, 2020)
Blank lines part the entries; values can stand above or below the compound they belong to. The source made the active and inactive calls. The calls are words filed in the database; no cut-off is given here.

Tests used:
[1] = biological target: T1, Perforin-1 (Homo sapiens) (UniProt P14222); assay: Inhibition of perforin in human KHYG-1 cells pre-treated with compound for 20 mins assessed as reduction in KHYG-1 cells-mediated cell lysis of human K562 cells at 20 uM measured after 4 hrs by 51Cr release based gamma counting method
T1 sequence (whole entry): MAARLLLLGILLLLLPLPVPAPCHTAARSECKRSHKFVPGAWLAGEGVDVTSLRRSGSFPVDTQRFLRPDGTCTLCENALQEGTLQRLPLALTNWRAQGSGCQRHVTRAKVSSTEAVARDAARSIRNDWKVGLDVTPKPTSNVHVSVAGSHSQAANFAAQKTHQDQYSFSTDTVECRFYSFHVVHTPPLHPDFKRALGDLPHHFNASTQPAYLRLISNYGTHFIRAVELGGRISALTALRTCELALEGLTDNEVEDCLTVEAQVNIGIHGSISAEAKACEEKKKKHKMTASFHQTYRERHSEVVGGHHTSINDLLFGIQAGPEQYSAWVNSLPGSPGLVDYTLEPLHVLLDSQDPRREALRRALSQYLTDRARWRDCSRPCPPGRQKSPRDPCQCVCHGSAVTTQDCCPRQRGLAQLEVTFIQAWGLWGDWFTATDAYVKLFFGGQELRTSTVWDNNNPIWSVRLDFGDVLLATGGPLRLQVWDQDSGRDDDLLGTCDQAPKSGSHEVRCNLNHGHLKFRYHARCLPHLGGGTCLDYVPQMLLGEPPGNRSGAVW

[2] = Solubility in water by HPLC analysis; assay type: physicochemical
[3] = Stability in CD1 mouse liver microsomes assessed as parent compound remaining level at 3 uM pre-incubated for 30 mins before NADPH addition by LC-MS/MS analysis; assay type: ADME, Microsome; details: read-out: Stability
[4] = Stability in Sprague-Dawley rat liver microsomes assessed as parent compound remaining level at 3 uM pre-incubated for 30 mins before NADPH addition by LC-MS/MS analysis; assay type: ADME, Microsome; details: read-out: Stability
[5] = Stability in human liver microsomes assessed as parent compound remaining level at 3 uM pre-incubated for 30 mins before NADPH addition by LC-MS/MS analysis; assay type: ADME, Microsome; details: read-out: Stability
[6] = Stability Milli-Q water at 10 uM incubated for 24 hrs by LC-MS/MS analysis; assay type: physicochemical; details: read-out: Stability
[7] = Toxicity in human KHYG-1 cells assessed as cell viability at 10 uM after 24 h by trypan blue exclusion assay relative to control; assay type: cell-based; details: read-out: Activity
[8] = Protein binding in CD1 mouse plasma at 10 uM incubated for 6 hrs by LC-MS/MS analysis and equilibrium dialysis; assay type: ADME, cell-free; details: read-out: PPB (converted)
[9] = Half life in CD1 mouse at 90 mg/kg, ip measured during 15 mins to 24 hrs by LC-MS/MS analysis; assay type: ADME, organism-based; details: in vivo
[10] = Cmax in CD1 mouse at 90 mg/kg, ip measured during 15 mins to 24 hrs by LC-MS/MS analysis; assay type: ADME, organism-based; set-up: dose 90 mg/kg, route intraperitoneal; details: in vivo
[11] = AUC (0 to infinity) in CD1 mouse at 90 mg/kg, ip measured during 15 mins to 24 hrs by LC-MS/MS analysis; assay type: ADME, organism-based; set-up: dose 90 mg/kg, route intraperitoneal, time infinity; details: in vivo
[12] = Unbound fraction in human KHYG-1 cell media; assay type: ADME
[13] = Time at which unbound plasma concentration stays above IC50 in C57BL/6 mouse at 90 mg/kg, ip; assay type: ADME, organism-based; details: in vivo
Mus musculus [14] = assay: (§1) Suppression of bone marrow transplant rejection in B6 mouse model of bone marrow transplantation receiving both allogeneic MHC- mismatched BALB/c stem cells and syngeneic MHC-matched B6 stem cells assessed as reduction in perforin-dependent NK cell-mediated graft rejection in peripheral blood at 125 mg/kg, ip dosed immediately prior to cell transfer and 18 hrs after cell transfer and measured after 24 hrs relative to control; assay type: functional; set-up: scale not given: the % may be the effect or the level left
[15] = Toxicity in B6 mouse model of bone marrow transplantation receiving both allogeneic MHC- mismatched BALB/c stem cells and syngeneic MHC-matched B6 stem cells assessed as drug tolerability at 125 mg/kg, ip dosed immediately prior to cell transfer and 18 hrs after cell transfer and measured after 24 hrs relative to control; assay type: organism-based; details: in vivo
Mus musculus [16] = assay: as §1, with “spleen” for “peripheral blood”; assay type: functional; set-up: scale not given: the % may be the effect or the level left
[17] = Half life in CD1 mouse at 150 mg/kg, ip measured during 15 mins to 24 hrs by LC-MS/MS analysis; assay type: ADME, organism-based; details: in vivo
[18] = Cmax in CD1 mouse at 150 mg/kg, ip measured during 15 mins to 24 hrs by LC-MS/MS analysis; assay type: ADME, organism-based; set-up: dose 150 mg/kg, route intraperitoneal; details: in vivo
[19] = AUC (0 to infinity) in CD1 mouse at 150 mg/kg, ip measured during 15 mins to 24 hrs by LC-MS/MS analysis; assay type: ADME, organism-based; set-up: dose 150 mg/kg, time infinity, route intraperitoneal; details: in vivo
[20] = Half life in CD1 mouse at 75 mg/kg, ip measured during 15 mins to 24 hrs by LC-MS/MS analysis; assay type: ADME, organism-based; details: in vivo
[21] = Cmax in CD1 mouse at 75 mg/kg, ip measured during 15 mins to 24 hrs by LC-MS/MS analysis; assay type: ADME, organism-based; set-up: dose 75 mg/kg, route intraperitoneal; details: in vivo
[22] = AUC (0 to infinity) in CD1 mouse at 75 mg/kg, ip measured during 15 mins to 24 hrs by LC-MS/MS analysis; assay type: ADME, organism-based; set-up: dose 75 mg/kg, route intraperitoneal, time infinity; details: in vivo

Compound: COc1ncc(-c2ccc(-c3cnc4c(c3)CN(C)C4=O)s2)cc1[N-]S(=O)(=O)c1ccc(F)cc1F.[Na+]
solubility [2]: 18.3 mg/mL
remaining at 3 µM [3]: 100%
remaining at 3 µM [4]: 100%
remaining at 3 µM [5]: 75%
remaining at 24 h, 10 µM [6]: 100%

Compound: CN1Cc2cc(-c3ccc(-c4cncc([N-]S(=O)(=O)c5ccccc5C(F)(F)F)c4)s3)cnc2C1=O.[Na+]
solubility [2]: 4.28 mg/mL
remaining at 3 µM [3]: 86%
remaining at 3 µM [4]: 36%
remaining at 3 µM [5]: 56%

Compound: CN1Cc2cc(-c3ccc(-c4cncc([N-]S(=O)(=O)c5cccc(C(F)(F)F)c5)c4)s3)cnc2C1=O.[Na+]
solubility [2]: 20.3 mg/mL
remaining at 3 µM [3]: 88%
remaining at 3 µM [4]: 84%
remaining at 3 µM [5]: 46%

Compound: COc1ncc(-c2ccc(-c3cnc4c(c3)CN(C)C4=O)s2)cc1[N-]S(=O)(=O)c1ccccc1[N+](=O)[O-].[Na+]
solubility [2]: 4.81 mg/mL
remaining at 3 µM [3]: 95%
remaining at 3 µM [4]: 80%
remaining at 3 µM [5]: 94%
remaining at 24 h, 10 µM [6]: 100%

Compound: COc1ncc(-c2ccc(-c3cnc4c(c3)CN(C)C4=O)s2)cc1NS(=O)(=O)c1ccccc1C(F)(F)F
viability at 24 h, 10 µM [7]: 95.8%

Compound: COc1ncc(-c2ccc(-c3cnc4c(c3)CN(C)C4=O)s2)cc1NS(=O)(=O)c1ccccc1[N+](=O)[O-]
viability at 24 h, 10 µM [7]: 95.8%
fraction unbound at 6 h, 10 µM [8]: 0.0009
half-life [20]: 1.6 h
Cmax [21]: 637 µM
AUC(0-inf) [22]: 2240 µM·h

Compound: CN1Cc2cc(-c3ccc(-c4cncc(NS(=O)(=O)c5cccc(C(F)(F)F)c5)c4)s3)cnc2C1=O [listing 2 of 2 here]
viability at 24 h, 10 µM [7]: 97.8%

Compound: O=C1NCc2cc(-c3ccc(-c4cncc(NS(=O)(=O)c5ccc(F)cc5F)c4)s3)cnc21
viability at 24 h, 10 µM [7]: 49%

Compound: COc1ncc(-c2ccc(-c3cnc4c(c3)CN(C)C4=O)s2)cc1[N-]S(=O)(=O)c1ccccc1C(F)(F)F.[Na+]
solubility [2]: 7.34 mg/mL
remaining at 3 µM [3]: 91%
remaining at 3 µM [4]: 50%
remaining at 3 µM [5]: 63%

Compound: CN1Cc2cc(-c3ccc(-c4cncc(NS(=O)(=O)c5ccccc5C(F)(F)F)c4)s3)cnc2C1=O
viability at 24 h, 10 µM [7]: 100%

The next lines start with results.

inhibition [1]: 40%
Compound: O=C1NCc2ncc(-c3ccc(-c4cncc(NS(=O)(=O)c5ccc(F)cc5F)c4)s3)cc21 [listing 1 of 2 here]

inhibition [1]: inactive
Compound: O=C1c2ccc(-c3ccc(-c4cncc(NS(=O)(=O)c5ccc(F)cc5F)c4)s3)cc2CN1CCN1CCOCC1

inhibition [1]: inactive
Compound: O=C1c2ccc(-c3ccc(-c4cncc(NS(=O)(=O)c5ccc(F)cc5F)c4)s3)cc2CN1CCN1CCCCC1

fraction unbound at 6 h, 10 µM [8]: 0.0009
half-life [9]: 18.9 h
Cmax [10]: 1310 µM
AUC(0-inf) [11]: 42500 µM·h
fraction unbound [12]: 0.255
Time [13]: 5 to 6 h
Compound: COc1ncc(-c2ccc(-c3cnc4c(c3)CN(C)C4=O)s2)cc1NS(=O)(=O)c1ccc(F)cc1F
viability at 24 h, 10 µM [7]: 90.6%
Activity (Mus musculus [14]): 66%
Activity [15]: Non-Toxic
Activity (Mus musculus [16]): 66%

fraction unbound at 6 h, 10 µM [8]: 0.0011
half-life [17]: 5.5 h
Cmax [18]: 1320 µM
AUC(0-inf) [19]: 7670 µM·h
Compound: O=C1NCc2ncc(-c3ccc(-c4cncc(NS(=O)(=O)c5ccc(F)cc5F)c4)s3)cc21 [listing 2 of 2 here]
viability at 24 h, 10 µM [7]: 100%

solubility [2]: 1.13 mg/mL
Compound: O=C1NCc2cc(-c3ccc(-c4cncc([N-]S(=O)(=O)c5ccc(F)cc5F)c4)s3)cnc21.[Na+]

inhibition [1]: 40%
Compound: CN1Cc2cc(-c3ccc(-c4cncc(NS(=O)(=O)c5cccc(C(F)(F)F)c5)c4)s3)cnc2C1=O [listing 1 of 2 here]

inhibition [1]: inactive
Compound: CN(C)CCN1Cc2cc(-c3ccc(-c4cncc(NS(=O)(=O)c5ccc(F)cc5F)c4)s3)ccc2C1=O

inhibition [1]: inactive
Compound: O=C1c2ccc(-c3ccc(-c4cncc(NS(=O)(=O)c5ccc(F)cc5F)c4)s3)cc2CN1CC(O)CO (configuration not stated)

solubility [2]: 3.77 mg/mL
remaining at 3 µM [3]: 83%
remaining at 3 µM [4]: 100%
remaining at 3 µM [5]: 95%
remaining at 24 h, 10 µM [6]: 93%
Compound: O=C1NCc2ncc(-c3ccc(-c4cncc([N-]S(=O)(=O)c5ccc(F)cc5F)c4)s3)cc21.[Na+]

inhibition [1]: inactive
Compound: O=C1c2ccc(-c3ccc(-c4cncc(NS(=O)(=O)c5ccc(F)cc5F)c4)s3)cc2CN1CCN1CCCC1

inhibition [1]: inactive
Compound: CN1CCN(CCN2Cc3cc(-c4ccc(-c5cncc(NS(=O)(=O)c6ccc(F)cc6F)c5)s4)ccc3C2=O)CC1

solubility [2]: 20.3 mg/mL
remaining at 3 µM [3]: 100%
remaining at 3 µM [4]: 100%
remaining at 3 µM [5]: 80%
remaining at 24 h, 10 µM [6]: 100%
Compound: CN1Cc2cc(-c3ccc(-c4cncc([N-]S(=O)(=O)c5ccc(F)cc5F)c4)s3)cnc2C1=O.[Na+]

fraction unbound at 6 h, 10 µM [8]: 0.0006
half-life [9]: 6.8 h
Cmax [10]: 860 µM
AUC(0-inf) [11]: 10400 µM·h
fraction unbound [12]: 0.456
Compound: CN1Cc2cc(-c3ccc(-c4cncc(NS(=O)(=O)c5ccc(F)cc5F)c4)s3)cnc2C1=O
viability at 24 h, 10 µM [7]: 99.6%

inhibition [1]: inactive
Compound: O=C1c2ccc(-c3ccc(-c4cncc(NS(=O)(=O)c5ccc(F)cc5F)c4)s3)cc2CN1CCCO
